The values that follow come from patent EP4667458A1 (Kanaph Therapeutics Inc., priority 2023, dated 2024).

Where only a bound is given, the exact number is not on record here.

The experiment deals with T1, KRAS^G12C::SOS1 (Homo sapiens, UniProt Q07889).
T1 sequence (Q07889 1-1333): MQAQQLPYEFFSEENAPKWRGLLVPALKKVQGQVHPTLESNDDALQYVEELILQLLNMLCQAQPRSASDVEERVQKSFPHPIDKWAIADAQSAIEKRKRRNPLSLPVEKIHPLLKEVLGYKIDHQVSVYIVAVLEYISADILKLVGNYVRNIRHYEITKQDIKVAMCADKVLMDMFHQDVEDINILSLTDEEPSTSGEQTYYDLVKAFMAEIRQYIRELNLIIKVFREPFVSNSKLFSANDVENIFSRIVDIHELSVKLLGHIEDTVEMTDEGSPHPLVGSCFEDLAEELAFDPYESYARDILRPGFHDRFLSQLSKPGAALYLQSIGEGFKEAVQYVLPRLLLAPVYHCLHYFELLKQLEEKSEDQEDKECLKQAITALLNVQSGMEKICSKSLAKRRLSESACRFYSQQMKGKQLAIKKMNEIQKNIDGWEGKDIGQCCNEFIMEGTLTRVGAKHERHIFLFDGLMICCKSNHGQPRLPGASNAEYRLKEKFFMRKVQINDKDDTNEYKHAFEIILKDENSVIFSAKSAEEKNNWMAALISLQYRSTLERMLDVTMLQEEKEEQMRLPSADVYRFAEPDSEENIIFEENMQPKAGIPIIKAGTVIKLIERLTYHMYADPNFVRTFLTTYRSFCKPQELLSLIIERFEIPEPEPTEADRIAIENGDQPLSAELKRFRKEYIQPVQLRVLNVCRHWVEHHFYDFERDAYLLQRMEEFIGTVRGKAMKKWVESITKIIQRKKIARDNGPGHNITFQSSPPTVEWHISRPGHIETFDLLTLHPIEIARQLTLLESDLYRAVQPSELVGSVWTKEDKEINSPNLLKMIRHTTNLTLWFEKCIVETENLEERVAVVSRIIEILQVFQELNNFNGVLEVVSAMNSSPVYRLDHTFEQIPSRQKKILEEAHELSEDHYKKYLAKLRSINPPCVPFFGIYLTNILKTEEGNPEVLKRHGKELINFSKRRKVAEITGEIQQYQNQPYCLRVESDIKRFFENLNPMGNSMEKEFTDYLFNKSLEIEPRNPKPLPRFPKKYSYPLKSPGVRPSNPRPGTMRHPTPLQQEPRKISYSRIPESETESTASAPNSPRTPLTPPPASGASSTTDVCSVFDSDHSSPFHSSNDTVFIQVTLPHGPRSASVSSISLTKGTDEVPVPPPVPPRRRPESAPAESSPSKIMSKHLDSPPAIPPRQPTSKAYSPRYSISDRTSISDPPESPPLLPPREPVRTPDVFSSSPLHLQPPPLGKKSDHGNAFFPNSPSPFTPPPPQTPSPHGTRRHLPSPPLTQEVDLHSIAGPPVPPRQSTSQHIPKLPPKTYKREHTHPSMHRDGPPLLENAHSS
The experiment in a line: KRAS G12C::SOS1 protein-protein interaction (PPI) inhibition assay (HTRF binding kit).
Protocol: Protein-protein interaction between SOS1 and KRAS^G12C was detected using KRAS G12C/SOS1 binding kit from CISBIO (64KRASG12PEH, CISBIO, FRANCE) according to the manufacturer's assay method. Briefly, the maximum concentration of an inhibitor sample was set to be 3 µM, and the inhibitor sample was diluted 7 times by 1/3, and samples having a total of 8 concentrations were prepared. In HTRF (Homogeneous Time-Resolved Fluorescence) exclusive 96-well low-volume white plate (66PL96005, CISBIO, FRANCE), 2 µL of an inhibitor sample prepared for each concentration, 5 µL of a mixed solution of Tag1-labeled KRAS^G12C protein and GTP diluted with the dilution solution provided by the manufacturer, and 5 µL of Tag2 labeled SOS1 protein were mixed, and added with 8 µL of a diluted solution where anti-Tag1 KRAS^G12C XL665 (HTRF acceptor) labeled antibody and anti-Tag2 SOS1 Terbium cryptate (HTRF donor) labeled antibody were mixed in an equal ratio and incubated at room temperature for 2 h.
`Cc1nnnn1-c1cccc(-n2nc(C(=O)N[C@H](C)c3cc(N)cc(C(F)(F)F)c3)ccc2=O)c1` [Example 373, N-[(1R)-1-[3-amino-5-(trifluoromethyl)phenyl]ethyl]-1-[3-(5-methyltetrazol-1-yl)phenyl]-6-oxo-pyridazine-3-carboxamide]: the IC50 is less than 1000 nM.

Compound `Cc1nnnn1-c1cccc(-n2cc(C(=O)N[C@H](C)c3cc(N)cc(C(F)(F)F)c3)ccc2=O)c1` [Example 374, N-[(1R)-1-[3-amino-5-(trifluoromethyl)phenyl]ethyl]-1-[3-(5-methyltetrazol-1-yl)phenyl]-6-oxo-pyridine-3-carboxamide] showed an IC50 of less than 1000 nM.

`C[C@@H](NC(=O)c1ccc(=O)n(-c2ccccc2F)n1)c1cc(N)cc(C(F)F)c1` [Example 375, N-[(1R)-1-[3-amino-5-(difluoromethyl)phenyl]ethyl]-1-(2-fluorophenyl)-6-oxo-pyridazine-3-carboxamide] gave an IC50 of less than 1000 nM.

`C[C@@H](NC(=O)c1ccc(=O)n(-c2cccc(-c3ccon3)c2)n1)c1cc(N)cc(C(F)(F)F)c1` [Example 376, N-[(1R)-1-[3-amino-5-(trifluoromethyl)phenyl]ethyl]-1-(3-isoxazol-3-ylphenyl)-6-oxo-pyridazine-3-carboxamide] came in with an IC50 of less than 1000 nM.

In turn, `C[C@@H](NC(=O)c1nn(-c2ccccc2F)c(=O)cc1N)c1cccc(C(F)(F)CO)c1F` [Example 379, 4-amino-N-[(1R)-1-[3-(1,1-difluoro-2-hydroxy-ethyl)-2-fluorophenyl]ethyl]-1-(2-fluorophenyl)-6-oxo-pyridazine-3-carboxamide] had an IC50 of less than 1000 nM.

For `CC(=O)Nc1cc(=O)n(-c2ccccc2F)nc1C(=O)N[C@H](C)c1cccc(C(F)(F)COC(C)=O)c1F` [Example 380, [2-[3-[(1R)-1-[[4-acetamido-1-(2-fluorophenyl)-6-oxo-pyridazine-3-carbonyl]amino]ethyl]-2-fluoro-phenyl]-2,2-difluoro-ethyl] acetate], the IC50 was less than 1000 nM.

In turn, `C[C@@H](NC(=O)c1nn(-c2ccccc2F)c(=O)cc1N)c1cc(N)cc(C(F)(F)F)c1` [Example 381, 4-amino-N-[(1R)-1-[3-amino-5-(trifluoromethyl)phenyl]ethyl]-1-(2-fluorophenyl)-6-oxo-pyridazine-3-carboxamide] gave an IC50 of less than 1000 nM.

As to `CC(=O)Nc1cc(=O)n(-c2ccccc2F)nc1C(=O)N[C@H](C)c1cc(N)cc(C(F)(F)F)c1` [Example 382, 4-acetamido-N-[(1R)-1-[3-amino-5-(trifluoromethyl)phenyl]ethyl]-1-(2-fluorophenyl)-6-oxo-pyridazine-3-carboxamide], the IC50 was less than 1000 nM.

`CNc1cc(=O)n(-c2ccccc2F)nc1C(=O)N[C@H](C)c1cc(N)cc(C(F)(F)F)c1` [Example 383, N-[(1R)-1-[3-amino-5-(trifluoromethyl)phenyl]ethyl]-1-(2-fluorophenyl)-4-(methylamino)-6-oxo-pyridazine-3-carboxamide] yielded an IC50 of less than 1000 nM.

On to `C[C@@H](NC(=O)c1nn(-c2ccccc2F)c(=O)cc1NS(C)(=O)=O)c1cc(N)cc(C(F)(F)F)c1` [Example 384, N-[(1R)-1-[3-amino-5-(trifluoromethyl)phenyl]ethyl]-1-(2-fluorophenyl)-4-(methanesulfonamido)-6-oxo-pyridazine-3-carboxamide], for which the IC50 is less than 1000 nM.

`Cc1ncc(-n2nc(C(=O)N[C@H](C)c3cc(N)cc(C(F)(F)F)c3)ccc2=O)s1` [Example 385, N-[(1R)-1-[3-amino-5-(trifluoromethyl)phenyl]ethyl]-1-(2-methylthiazol-5-yl)-6-oxo-pyridazine-3-carboxamide] returned an IC50 of less than 1000 nM.

On to `Cc1nc(-n2nc(C(=O)N[C@H](C)c3cc(N)cc(C(F)(F)F)c3)ccc2=O)cs1` [Example 386, N-[(1R)-1-[3-amino-5-(trifluoromethyl)phenyl]ethyl]-1-(2-methylthiazol-4-yl)-6-oxo-pyridazine-3-carboxamide], for which the half-maximal inhibitory concentration (IC50) is less than 1000 nM.

For the compound `C[C@@H](NC(=O)c1ccc(=O)n(-c2ccn(C)n2)n1)c1cc(N)cc(C(F)(F)F)c1` [Example 387, N-[(1R)-1-[3-amino-5-(trifluoromethyl)phenyl]ethyl]-1-(1-methylpyrazol-3-yl)-6-oxo-pyridazine-3-carboxamide], the IC50 is less than 1000 nM.

Regarding `C[C@@H](NC(=O)c1ccc(=O)n(-c2ncccc2F)n1)c1cc(N)cc(C(F)(F)F)c1` [Example 388], the half-maximal inhibitory concentration (IC50) is greater than 10000 nM.

Compound `C[C@H](NC(=O)c1ccc(=O)n(-c2ccccc2F)n1)c1cc(N)cc(C(F)(F)F)n1` [Example 394, N-[(1S)-1-[4-amino-6-(trifluoromethyl)-2-pyridyl]ethyl]-1-(2-fluorophenyl)-6-oxo-pyridazine-3-carboxamide] showed an IC50 greater than 10000 nM.

`C[C@@H](NC(=O)c1ccc(=O)n(-c2ccccc2F)n1)c1cc(N)cc(C(F)(F)F)n1` [Example 395, N-[(1R)-1-[4-amino-6-(trifluoromethyl)-2-pyridyl]ethyl]-1-(2-fluorophenyl)-6-oxo-pyridazine-3-carboxamide] came in with an IC50 of 1000 to 10000 nM.

As for `CNCc1ccc(F)cc1-c1ncc([C@@H](C)NC(=O)c2ccc(=O)n(-c3ccccc3F)n2)s1` [Example 396, N-[(1R)-1-[2-[5-fluoro-2-(methylaminomethyl)phenyl]thiazol-5-yl]ethyl]-1-(2-fluorophenyl)-6-oxo-pyridazine-3-carboxamide], the IC50 is less than 1000 nM.

`COCC(F)(F)c1cccc([C@@H](C)NC(=O)c2ccc(=O)n(-c3cccc(-c4cnnn4C)c3)n2)c1F` [Example 397] returned an IC50 of less than 1000 nM.

On to `CNCc1ccccc1-c1ccc([C@@H](C)NC(=O)c2ccc(=O)n(-c3ccc(F)cc3F)n2)s1` [Example 398, (R)-1-(2,4-difluorophenyl)-N-(1-(5-(2-((methylamino)methyl)phenyl)thiophenyl-2-yl)ethyl)-6-oxo-1,6-dihydropyridazine-3-carboxamide], for which the IC50 is less than 1000 nM.

The compound `CNCc1cc(F)c(Cl)cc1-c1ccc([C@@H](C)NC(=O)c2ccc(=O)n(-c3cccnc3F)n2)s1` [Example 399, N-[(1R)-1-(5-{5-chloro-4-fluoro-2-[(methylamino)methyl]phenyl}thiophen-2-yl)ethyl]-1-(2-fluoropyridin-3-yl)-6-oxo-1,6-dihydropyridazine-3-carboxamide] yielded an IC50 of less than 1000 nM.

As to `CNCc1cc(Cl)c(F)cc1-c1ccc([C@@H](C)NC(=O)c2ccc(=O)n(-c3cccnc3F)n2)s1` [Example 400, N-[(1R)-1-(5-{4-chloro-5-fluoro-2-[(methylamino)methyl]phenyl}thiophen-2-yl)ethyl]-1-(2-fluoropyridin-3-yl)-6-oxo-1,6-dihydropyridazine-3-carboxamide], the IC50 is less than 1000 nM.

As to `CNCc1cc(F)c(F)cc1-c1ccc([C@@H](C)NC(=O)c2ccc(=O)n(-c3cccnc3F)n2)s1` [Example 401, N-[(1R)-1-(5-{4,5-difluoro-2-[(methylamino)methyl]phenyl}thiophen-2-yl)ethyl]-1-(2-fluoropyridin-3-yl)-6-oxo-1,6-dihydropyridazine-3-carboxamide], the IC50 was less than 1000 nM.

Compound `CNCc1ccc(C)cc1-c1ccc([C@@H](C)NC(=O)c2ccc(=O)n(-c3cccnc3F)n2)s1` [Example 402, 1-(2-fluoropyridin-3-yl)-N-[(1R)-1-(5-{5-methyl-2-[(methylamino)methyl]phenyl}thiophen-2-yl)ethyl]-6-oxo-1,6-dihydropyridazine-3-carboxamide] came in with a concentration for half-maximal inhibition (IC50) of less than 1000 nM.

Consider `C[C@@H](NC(=O)c1ccc(=O)n(-c2cccnc2F)n1)c1ccc(-c2cc(F)ccc2CN(C)C)s1` [Example 403, N-[(1R)-1-(5-{2-[(dimethylamino)methyl]-5-fluorophenyl}thiophen-2-yl)ethyl]-1-(2-fluoropyridin-3-yl)-6-oxo-1,6-dihydropyridazine-3-carboxamide], for which the IC50 is less than 1000 nM.

`C[C@@H](NC(=O)c1ccc(=O)n(-c2cccnc2F)n1)c1ccc(-c2cc(F)ccc2CN)s1` [Example 404] gave an IC50 of less than 1000 nM.

`CCn1cc(-n2nc(C(=O)N[C@H](C)c3ccc(-c4cc(Cl)ccc4CNC)s3)ccc2=O)cn1` [Example 405] returned an IC50 of less than 1000 nM.
